Test results: patent US20210186947A1, “TOMM6-INTERACTING EXTRACTS AND COMPOUNDS FOR USE IN THE TREATMENT AND PROPHYLAXIS OF NERVOUS SYSTEM DISEASES, ATHEROSCLEROSIS, HEPATITIS B INFECTION AND HUMAN PAPILLOMA VIRUS (HPV) INFECTION” (ETH ZURICH, priority 2018, published 2021)
Where a chain is given by its changes, count along the chain named.

What was measured:
TOMM6 [1] = target: T1, TOMM6 (Homo sapiens, UniProt Q96B49); experiment: Screening for TOMM6-inducing compounds in HEK cells, TOMM6 immunoblot; type: cell-based; parameters: endogenous in cells; host or cells: HEK cells; conditions: final concentration 20 microM, 60 h
T1 sequence (Q96B49 1-74): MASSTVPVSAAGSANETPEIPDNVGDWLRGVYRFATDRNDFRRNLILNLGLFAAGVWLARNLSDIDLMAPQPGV
Experimental: For immunoblot detection of (hippocampal or HEK cell) proteins, e.g. Tomm6/TOMM6 and Atp6v1a/ATP6V1A, (hippocampal) tissue was pulverized under liquid nitrogen, and HEK cell pellets were directly subjected to protein extraction. Proteins were extracted for 30 min at 4° C. with solubilization buffer (1% sodium deoxycholate, 0.1% SDS, 0.1% NP40, 5 mM EDTA, 50 mM Tris, pH 8.0) supplemented with protease/phosphatase inhibitors (Cat. No. P8349, and/or PPC1010, Sigma-Aldrich, St. Louis, Mo., USA). Particulate material was removed by centrifugation at 50 000×g for 20 min at 4° C. Solubilized proteins were concentrated and delipidated by precipitation with ice-cold acetone/methanol (12:2, final concentration 83%) for 90 min at 4° C. The pellet was dissolved in SDS-sample buffer supplemented with 2% SDS, 0.1 M DTT (or 5% mercaptoethanol), and 6 M urea for 90 min at room temperature. Proteins were stored at a concentration of 0.5 mg-1 mg/ml at −70° C. for further use. Immunoblot detection of proteins was performed with affinity-purified antibodies or F(ab)2 fragments of the respective antibodies after separation of proteins by urea-containing SDS-PAGE (7.5%-10%) under reducing conditions and electrophoretic protein transfer to PVDF membranes in a tank transfer cell (Mini Trans-Blot cell, Bio-Rad GmbH, Munchen, Germany). Bound antibodies were visualized with F(ab)2 fragments of enzyme-coupled secondary antibodies (Dianova GmbH, Hamburg, Germany) pre-absorbed to mouse serum proteins, or by enzyme-coupled protein A (EMD Millipore, Merck KGaA, Darmstadt, Germany) as applicable, and followed by enhanced chemiluminescent detection (ECL Plus, and/or ECL Prime, Amersham, GE Healthcare Life Sciences, Glattbrugg, Switzerland).
TOMM6-inducing compounds were searched for and a screening system was established in HEK cells. HEK cells were cultured in the absence and presence of a test compound at a final concentration of 20 microM. Cells were harvested, proteins were extracted and TOMM6 protein levels were determined in immunoblot with TOMM6-specific antibodies. […] The following TOMM6-interacting (inducing) compounds were identified: Compound-3: N-[(3-chlorophenyl)methyl]-2-(3-piperidyl)oxazole-4-carboxamide; Compound-4: N-[(3,4-dichlorophenyl)methyl]-2-(3-piperidyl)oxazole-4-carboxamide; Compound-5: 2-[(1S)-1-amino-2-methyl-butyl]-N-[(3,4-dichlorophenyl)methyl]oxazole-4-carboxamide; Compound-6: 2-[(1S)-1-amino-2-methyl-propyl]-N-[(3,4-dichlorophenyl)methyl]oxazole-4-carboxamide; Compound-7: 6-(aminomethyl)-4-(4-chlorophenyl)-2-methyl-pyridine-3-carboxamide; Compound-8: 4-(2,4-dichlorophenyl)-6-[(1,3-dioxoisoindolin-2-yl)methyl]-2-methyl-pyridine-3-carboxamide; Compound-9: 4-(4-chlorophenyl)-6-[(1,3-dioxoisoindolin-2-yl)methyl]-2-methyl-pyridine-3-carboxamide; and Compound-10: 4-(4-chlorophenyl)-6-(hydroxymethyl)-2-methyl-pyridine-3-carboxamide).

[2] = system: hyperphosphorylated PHF-Tau; experiment: Hippocampal hyperphosphorylated PHF-Tau in Tg2576 mice subjected to CUMS, binding assay with [125I]-labeled AT8 antibody; type: in vivo; conditions: 15 months-old Tg2576 mice, 3 months of CUMS, treated during CUMS; compounds 10 mg/kg/d
[3] = system: hippocampal neuronal cell bodies (NeuN); experiment: Hippocampal neuronal loss in Tg2576 mice subjected to CUMS, binding assay with [125I]-labeled anti-NeuN antibody; type: in vivo; conditions: 15 months-old Tg2576 mice, 3 months of CUMS, treated during CUMS; compounds 10 mg/kg/d
Tomm6 [4] = target: T2, Tomm6 (Mus musculus, UniProt Q9CQN3); experiment: Immunoblot detection of hippocampal Tomm6 protein in treated Tg2576 mice; type: in vivo; conditions: Tg2576 AD mice subjected to the CUMS protocol, treated during CUMS (10 mg/kg/d)
T2 construct: hippocampi were isolated from 5-10 aged Tg2576 mice, pulverized under liquid nitrogen and solubilized; from tissue; host or cells: hippocampus of Tg2576 mice
T2 sequence (Q9CQN3 1-74): T1 sequence (Q96B49 1-74) with T5G, P7T, N15S, T17A, P18S, I20V, Y32F

Row | TOMM6 protein level in HEK cells (TOMM6 [1]) | Compound | hippocampal content of hyperphosphorylated PHF-Tau [2] | hippocampal neuronal loss [3] | hippocampal Tomm6 protein content (Tomm6 [4])
1 | inducers of TOMM6 | CCC(C)[C@H](N)c1nc(C(=O)NCc2ccc(Cl)c(Cl)c2)co1 (stereo partly drawn) [Compound-5, 2-[(1S)-1-amino-2-methyl-butyl]-N-[(3,4-dichlorophenyl)methyl]oxazole-4-carboxamide] | – | – | –
2 | inducers of TOMM6 | CC(C)[C@H](N)c1nc(C(=O)NCc2ccc(Cl)c(Cl)c2)co1 [Compound-6, 2-[(1S)-1-amino-2-methyl-propyl]-N-[(3,4-dichlorophenyl)methyl]oxazole-4-carboxamide] | – | – | –

Further lines, the compound ahead of its results:

Row | Compound | TOMM6 protein level in HEK cells (TOMM6 [1]) | hippocampal content of hyperphosphorylated PHF-Tau [2] | hippocampal neuronal loss [3] | hippocampal Tomm6 protein content (Tomm6 [4])
3 | O=C(NCc1ccc(Cl)c(Cl)c1)c1coc(C2CCCNC2)n1 (stereo not drawn) [Compound-4, N-[(3,4-dichlorophenyl)methyl]-2-(3-piperidyl)oxazole-4-carboxamide] | inducers of TOMM6 | decreased hippocampal PHF tau hyperphosphorylation | retarded overt neuronal loss | strong increase in hippocampal Tomm6 protein content
4 | O=C(NCc1cccc(Cl)c1)c1coc(C2CCCNC2)n1 (stereo not drawn) [Compound-3, N-[(3-chlorophenyl)methyl]-2-(3-piperidyl)oxazole-4-carboxamide] | inducers of TOMM6 | – | – | –
5 | Cc1nc(CN2C(=O)c3ccccc3C2=O)cc(-c2ccc(Cl)cc2)c1C(N)=O [Compound-9, 4-(4-chlorophenyl)-6-[(1,3-dioxoisoindolin-2-yl)methyl]-2-methyl-pyridine-3-carboxamide] | inducers of TOMM6 | – | – | –
6 | Cc1nc(CN2C(=O)c3ccccc3C2=O)cc(-c2ccc(Cl)cc2Cl)c1C(N)=O [Compound-8, 4-(2,4-dichlorophenyl)-6-[(1,3-dioxoisoindolin-2-yl)methyl]-2-methyl-pyridine-3-carboxamide] | inducers of TOMM6 | – | – | –
